# Measured values as given in patent publication US8445532B2, “Use of phthalide derivatives” (priority 2005, dated 2013).
# How the values were obtained:
# KBv200 cells = test: Sensitizing effect of PA to conventional chemotherapeutic drugs (MTT); assay type: cell-based, human; conditions: KBv200, IC50 without sensitizer / with sensitizer 10 μg/mL
# Method: (§1) The cells at logarithmic phase were collected and added into RPMI 1640 medium (containing 10% fetal bovine serum) to make cell suspensions. The cell suspension was added to 96-well plate at 100 μl per well, and the cell number was 2×10^3 (suspending cells) or 1×10^3 (adherent cells) per well. After inoculation, the suspending cells were adapted for half an hour on the plate and the adherent cells were cultivated to allow adhesion before the drugs were added. The control groups (Ctrl) were added with anti-tumor drugs but without PA. The drug concentration of each PA group was 10 μg/mL. The concentrations of chemotherapeutic drugs increased from 0.001 μg/mL to 20 μg/mL. There Were six parallel repeated wells for every concentration gradient. RPMI 1640 was added up to a finally volume of 200 μl per well. The cells were cultured at the condition of 37° C., saturated humidity, 5% CO2 for 68 hours. The MTT was determined and the IC50 was calculated as in example 4.
# (§2) The formula of resistant factor: Resistant Factor (RF)=the IC50 without sensitizer/the IC50 with sensitizer.
# K562/Adr cells = test: as above; assay type: cell-based, human; conditions: IC50 without sensitizer / with sensitizer 10 μg/mL
# Method: as §1, §2
# MCF-7/Adr cells = test: as above; assay type: cell-based, human; conditions: IC50 without sensitizer / with sensitizer 10 μg/mL
# Method: as §1, §2
# K562/Adr = test: Growth inhibiting effect of PA on drug resistant cells (MTT); assay type: cell-based; conditions: Homo sapiens, PA alone, read-out: IC50 growth inhibition
# Method: (§3) Methods: 1×10^3 cells per well were inoculated onto a 96-well plate. PA was added to K562/Adr directly and to KBV200 and MCF-7/Adr after adhesion. The concentrations of the drugs were 0, 0.1, 0.5, 1, 5, 10, 20, 40, 80, 160 μg/mL. MTT was determined according to the method of example 2 and the IC50 was calculated. The experiment was repeated three times.
# KBv200 = test: as above; assay type: cell-based; conditions: Homo sapiens; KBv200, PA alone; read-out: IC50 growth inhibition
# Method: as §3
# MCF-7/Adr = test: as above; assay type: cell-based; conditions: Homo sapiens, NCI/ADR-RES, PA alone, read-out: IC50 growth inhibition
# Method: as §3
Compound,IC50 (K562/Adr) [µg/mL],IC50 (MCF-7/Adr) [µg/mL],"RF (Ctrl/S), Adr (KBv200 cells)","RF (Ctrl/S), DDP (KBv200 cells)","RF (Ctrl/S), Taxol (KBv200 cells)","RF (Ctrl/S), Vin (KBv200 cells)","RF (Ctrl/S), Adr (K562/Adr cells)","RF (Ctrl/S), DDP (K562/Adr cells)","RF (Ctrl/S), Taxol (K562/Adr cells)","RF (Ctrl/S), Vin (K562/Adr cells)","RF (Ctrl/S), Adr (MCF-7/Adr cells)","RF (Ctrl/S), DDP (MCF-7/Adr cells)","RF (Ctrl/S), Taxol (MCF-7/Adr cells)","RF (Ctrl/S), Vin (MCF-7/Adr cells)",IC50 (KBv200) [µg/mL]
"CCCCC1OC(=O)C2=C1CCC=C2 (single isomer, unassigned) [S1]",21.4 ± 1.09,37.4 ± 3.15,10.27,8.063,5.245,13.03,34.99,5.116,24.04,6.214,11.34,3.376,2.685,11.12,38.7 ± 2.13
"CCC/C=C1\OC(=O)C2=C1CCC1OC21 (single isomer, unassigned) [S3]",39.2 ± 1.58,34 ± 3.76,18.97,7.188,2.548,6.169,13.93,2.239,5.740,4.899,4.153,6.708,3.232,4.008,27.4 ± 1.06
"CCC/C=C1\OC(=O)C2=C1CCC(O)C2O (single isomer, unassigned) [S5]",18.3 ± 0.762,39.3 ± 2.14,16.95,3.208,13.88,2.088,6.264,2.104,2.117,3.109,5.02,4.508,15.62,6.934,29.8 ± 1.05
CCCCC1OC(=O)c2cccc(O)c21 (stereo not drawn) [S2],41.4 ± 3.53,29.4 ± 2.8,12.23,2.767,10.83,11.40,41.12,5.698,10.57,1.757,6.939,2.565,10.19,6.239,26.4 ± 1.98
CCC/C=C1\OC(=O)C2=C1CCC=C2 [S4],32.4 ± 1.13,47.3 ± 2.12,5.331,6.981,6.416,13.02,6.349,3.007,2.412,6.432,3.114,5.125,4.279,26.01,32.5 ± 1.03

# Second part, led by results:
IC50 (K562/Adr) [µg/mL],IC50 (MCF-7/Adr) [µg/mL],Compound,"RF (Ctrl/S), Adr (KBv200 cells)","RF (Ctrl/S), DDP (KBv200 cells)","RF (Ctrl/S), Taxol (KBv200 cells)","RF (Ctrl/S), Vin (KBv200 cells)","RF (Ctrl/S), Adr (K562/Adr cells)","RF (Ctrl/S), DDP (K562/Adr cells)","RF (Ctrl/S), Taxol (K562/Adr cells)","RF (Ctrl/S), Vin (K562/Adr cells)","RF (Ctrl/S), Adr (MCF-7/Adr cells)","RF (Ctrl/S), DDP (MCF-7/Adr cells)","RF (Ctrl/S), Taxol (MCF-7/Adr cells)","RF (Ctrl/S), Vin (MCF-7/Adr cells)",IC50 (KBv200) [µg/mL]
29.8 ± 0.995,44.5 ± 3.99,CCC/C=C1\OC(=O)C2=C1CC[C@H]1C3C=C4C(=O)O/C(=C\CCC)[C@@]4(CC3)C21 (stereo partly drawn) [S6],2.297,2.622,8.72,3.342,6.249,1.371,1.641,1.833,12.59,2.539,3.932,13.22,35.2 ± 2.15
20.4 ± 2.61,39.6 ± 4.61,CCC/C=C1\OC(=O)C2=C1CCC1C(CCC)C3(OC(=O)C4=C3CCC=C4)C21 (stereo not drawn) [S7],2.405,5.939,5.179,7.376,8.257,0.653,1.550,3.963,14.12,6.516,7.023,3.831,36.9 ± 2.19
31.3 ± 1.87,43.2 ± 3.14,CCC/C=C1\OC(=O)C2=CC3CC[C@]21C1C2=C(CC[C@@H]31)C(CCCC)OC2=O (stereo partly drawn) [S8],3.623,4.375,3.87,7.326,1.796,2.722,3.506,7.918,5.639,6.407,1.612,9.597,38.6 ± 2.17
